# Data published in patent publication US12630534B2 (TAKEDA PHARMACEUTICAL COMPANY LIMITED, priority 2020, dated 2026).
# Target: T1, human GPR139 (Homo sapiens, UniProt Q6DWJ6)
# T1 construct: expressed in transfected cells; host or cells: CHO-TREx (Life Technologies) cells, expression induced with doxycycline
# T1 sequence (Q6DWJ6 1-353): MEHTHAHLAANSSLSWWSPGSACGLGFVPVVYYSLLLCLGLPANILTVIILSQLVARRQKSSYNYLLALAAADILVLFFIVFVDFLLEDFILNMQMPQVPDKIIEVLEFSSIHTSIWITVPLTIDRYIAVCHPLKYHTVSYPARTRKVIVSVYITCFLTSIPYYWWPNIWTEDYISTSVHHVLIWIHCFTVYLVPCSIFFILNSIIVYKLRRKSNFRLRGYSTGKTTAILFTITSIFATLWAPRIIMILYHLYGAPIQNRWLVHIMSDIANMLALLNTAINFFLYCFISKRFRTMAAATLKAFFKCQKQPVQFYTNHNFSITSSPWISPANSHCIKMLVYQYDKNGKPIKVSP
# Test: Inhibition rate of the amount of IP1 in GPR139-expressed CHO cells (inverse agonist assay, Test Example 2)
# Type: cell-based
# Details: CHO, relative value, inhibition rate of Example Compound 2 in Test Example 1 defined as 100%
# Procedure, shortened: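 CHO-TREx cells with doxycycline-inducible human GPR139 (2 μg/mL, 17 h) were incubated with compound at 2000 cells/well for 40 min at 37° C. IP1 quantified by HTRF (665/615 nm ratio ×10000); inhibition rate expressed relative to a reference compound defined as […].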
smiles,measurement,value
"CCn1cc(Cn2cc(C)n(-c3cc(OCC(F)(F)F)cc(N4CCO[C@H](C)C4)c3)c2=O)cn1 [Example 72, 1-[(1-ethyl-1H-pyrazol-4-yl)methyl]-4-methyl-3-{3-[(2R)-2-methylmorpholin-4-yl]-5-(2,2,2-trifluoroethoxy)phenyl}-1,3-dihydro-2H-imidazol-2-one]",inhibition at 30 µM,99%
"CCn1cc(Cn2c(C)c(C)n(-c3cc(OCC(F)(F)F)cc(N(C)C4CCOCC4)c3)c2=O)cn1 [Example 73, 1-[(1-ethyl-1H-pyrazol-4-yl)methyl]-4,5-dimethyl-3-{3-[methyl(oxan-4-yl)amino]-5-(2,2,2-trifluoroethoxy)phenyl}-1,3-dihydro-2H-imidazol-2-one]",inhibition at 30 µM,99%
"C=Cc1cc(N2CCO[C@H](C)C2)cc(-n2ccn(Cc3cnn(CC)c3)c2=O)c1F [Example 74, 1-{3-ethenyl-2-fluoro-5-[(2R)-2-methylmorpholin-4-yl]phenyl}-3-[(1-ethyl-1H-pyrazol-4-yl)methyl]-1,3-dihydro-2H-imidazol-2-one]",inhibition at 30 µM,98%
"CC(C)n1cc(Cn2ccn(-c3nc(N4CCO[C@H](C)C4)cc(C(F)(F)F)c3F)c2=O)cn1 [Example 75, 1-{3-fluoro-6-[(2R)-2-methylmorpholin-4-yl]-4-(trifluoromethyl)pyridin-2-yl}-3-{[1-(propan-2-yl)-1H-pyrazol-4-yl]methyl}-1,3-dihydro-2H-imidazol-2-one]",inhibition at 30 µM,99%
"Cc1c(C)n(-c2cc(C(F)F)cc(N(C)C3CCOCC3)c2)c(=O)n1Cc1cnn(C(C)C)c1 [Example 76, 1-{3-(difluoromethyl)-5-[methyl(oxan-4-yl)amino]phenyl}-4,5-dimethyl-3-{[1-(propan-2-yl)-1H-pyrazol-4-yl]methyl}-1,3-dihydro-2H-imidazol-2-one]",inhibition at 30 µM,97%
"CCn1cc(Cn2cc(C)n(-c3cc(C(F)(F)F)nn3CCC3CCC3)c2=O)cn1 [Example 77, 3-[1-(2-cyclobutylethyl)-3-(trifluoromethyl)-1H-pyrazol-5-yl]-1-[(1-ethyl-1H-pyrazol-4-yl)methyl]-4-methyl-1,3-dihydro-2H-imidazol-2-one]",inhibition at 30 µM,100%
"CCn1cc(Cn2ccn(-c3cc(N4CCO[C@H](C)C4)cc(C4CC4(F)F)c3F)c2=O)cn1 (stereo partly drawn) [Example 78, 1-{3-(2,2-difluorocyclopropyl)-2-fluoro-5-[(2R)-2-methylmorpholin-4-yl]phenyl}-3-[(1-ethyl-1H-pyrazol-4-yl)methyl]-1,3-dihydro-2H-imidazol-2-one]",inhibition at 30 µM,99%
"Cc1cn(-c2cc(N3CCOC(C)(C)C3)cc(C(F)F)c2F)c(=O)n1Cc1cnn(C(C)C)c1 [Example 79, 1-[3-(difluoromethyl)-5-(2,2-dimethylmorpholin-4-yl)-2-fluorophenyl]-4-methyl-3-{[1-(propan-2-yl)-1H-pyrazol-4-yl]methyl}-1,3-dihydro-2H-imidazol-2-one]",inhibition at 30 µM,98%
"CCc1cc(N2CCO[C@H](C)C2)cc(-n2ccn(Cc3cnn(CC)c3)c2=O)c1F [Example 80, 1-{3-ethyl-2-fluoro-5-[(2R)-2-methylmorpholin-4-yl]phenyl}-3-[(1-ethyl-1H-pyrazol-4-yl)methyl]-1,3-dihydro-2H-imidazol-2-one]",inhibition at 30 µM,99%
"CCc1cc(N2CCO[C@H](C)C2)cc(-n2cc(C)n(Cc3cnn(CC)c3)c2=O)c1F [Example 81, 1-{3-ethyl-2-fluoro-5-[(2R)-2-methylmorpholin-4-yl]phenyl}-3-[(1-ethyl-1H-pyrazol-4-yl)methyl]-4-methyl-1,3-dihydro-2H-imidazol-2-one]",inhibition at 30 µM,98%
"CCn1cc(Cn2cc(C)n(-c3cc(N4CCO[C@H](C)C4)cc(C(F)(F)F)c3Cl)c2=O)cn1 [Example 82, 3-{2-chloro-5-[(2R)-2-methylmorpholin-4-yl]-3-(trifluoromethyl)phenyl}-1-[(1-ethyl-1H-pyrazol-4-yl)methyl]-4-methyl-1,3-dihydro-2H-imidazol-2-one]",inhibition at 30 µM,100%
"CCn1cc(Cn2c(C)cn(-c3nc(N(C)C4CCOCC4)cc(C(F)(F)F)c3Cl)c2=O)cn1 [Example 83, 1-{3-chloro-6-[methyl(oxan-4-yl)amino]-4-(trifluoromethyl)pyridin-2-yl}-3-[(1-ethyl-1H-pyrazol-4-yl)methyl]-4-methyl-1,3-dihydro-2H-imidazol-2-one]",inhibition at 30 µM,99%
"CCn1cc(Cn2c(C)cn(-c3nc(N4CCO[C@H](C)C4)cc(C(F)(F)F)c3Cl)c2=O)cn1 [Example 84, 1-{3-chloro-6-[(2R)-2-methylmorpholin-4-yl]-4-(trifluoromethyl)pyridin-2-yl}-3-[(1-ethyl-1H-pyrazol-4-yl)methyl]-4-methyl-1,3-dihydro-2H-imidazol-2-one]",inhibition at 30 µM,99%
"Cc1cn(-c2nc(N3CCO[C@H](C)C3)cc(C(F)(F)F)c2Cl)c(=O)n1Cc1cnn(C(C)C)c1 [Example 85, 1-{3-chloro-6-[(2R)-2-methylmorpholin-4-yl]-4-(trifluoromethyl)pyridin-2-yl}-4-methyl-3-{[1-(propan-2-yl)-1H-pyrazol-4-yl]methyl}-1,3-dihydro-2H-imidazol-2-one]",inhibition at 30 µM,97%
"CCn1cc(Cn2cc(C)n(-c3cc(C(F)(F)F)cc(N(C)C4CCOCC4)n3)c2=O)cn1 [Example 86, 1-[(1-ethyl-1H-pyrazol-4-yl)methyl]-4-methyl-3-{6-[methyl(oxan-4-yl)amino]-4-(trifluoromethyl)pyridin-2-yl}-1,3-dihydro-2H-imidazol-2-one]",inhibition at 30 µM,101%
"Cc1cc(N2CCO[C@H](C)C2)cc(-n2cc(C)n(Cc3cnn(C(C)C)c3)c2=O)c1F [Example 87, 1-{2-fluoro-3-methyl-5-[(2R)-2-methylmorpholin-4-yl]phenyl}-4-methyl-3-{[1-(propan-2-yl)-1H-pyrazol-4-yl]methyl}-1,3-dihydro-2H-imidazol-2-one]",inhibition at 30 µM,98%
"CCn1cc(Cn2cc(C)n(-c3cc(OCC(F)(F)F)cc(N(C)C4CCOCC4)c3)c2=O)cn1 [Example 88, 1-[(1-ethyl-1H-pyrazol-4-yl)methyl]-4-methyl-3-{3-[methyl(oxan-4-yl)amino]-5-(2,2,2-trifluoroethoxy)phenyl}-1,3-dihydro-2H-imidazol-2-one]",inhibition at 30 µM,99%
"CCn1cc(Cn2cc(C)n(-c3cc(Br)cc(N4CCO[C@H](C)C4)c3)c2=O)cn1 [Example 89, 3-{3-bromo-5-[(2R)-2-methylmorpholin-4-yl]phenyl}-1-[(1-ethyl-1H-pyrazol-4-yl)methyl]-4-methyl-1,3-dihydro-2H-imidazol-2-one]",inhibition at 30 µM,101%
"Cc1nn(-c2cc(N3CCO[C@@H](C)C3)cc(C(F)(F)F)c2F)c(=O)n1Cc1cnn(C(C)C)c1 [Example 90, 2-{2-fluoro-5-[(2S)-2-methylmorpholin-4-yl]-3-(trifluoromethyl)phenyl}-5-methyl-4-{[1-(propan-2-yl)-1H-pyrazol-4-yl]methyl}-2,4-dihydro-3H-1,2,4-triazol-3-one]",inhibition at 30 µM,99%
"Cc1nn(-c2cc(N3CCO[C@H](C)C3)cc(C(F)(F)F)c2F)c(=O)n1Cc1cnn(C(C)C)c1 [Example 91, 2-{2-fluoro-5-[(2R)-2-methylmorpholine-4-yl]-3-(trifluoromethyl)phenyl}-5-methyl-4-{[1-(propane-2-yl)-1H-pyrazole-4-yl]methyl}-2,4-dihydro-3H-1,2,4-triazole-3-one]",inhibition at 30 µM,100%
